# Assay results published in ChEMBL document CHEMBL1201861, “Genomics of Drug Sensitity in Cancer screening data, Wellcome Trust Sanger Institute”.
# Key:
# Assay in all cases: cells
# CTB-1 = format: functional, cell-based, Homo sapiens; conditions: Homo sapiens, CTB-1
# Description: SANGER: Inhibition of human CTB-1 cell growth in a cell viability assay.
# D-502MG = format: functional, cell-based, Homo sapiens; conditions: Homo sapiens, D-502MG
# Description: SANGER: Inhibition of human D-502MG cell growth in a cell viability assay.
# EM-2 = format: functional, cell-based, Homo sapiens; conditions: Homo sapiens, EM-2;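 further: growth inhibition of EM-2 cells, read out with a cell viability assay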
# Description: SANGER: Inhibition of human EM-2 cell growth in a cell viability assay.
# ES5 = format: functional, cell-based, Homo sapiens; conditions: Homo sapiens, ES5;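 further: growth inhibition of human ES5 cells, read out by a cell viability assay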
# Description: SANGER: Inhibition of human ES5 cell growth in a cell viability assay.
# EW-3 = format: functional, cell-based, Homo sapiens; conditions: Homo sapiens, EW-3;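 further: cell viability assay read-out, IC50 reflects inhibition of growth of the EW-3 cells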
# Description: SANGER: Inhibition of human EW-3 cell growth in a cell viability assay.
# GAK = format: functional, cell-based, Homo sapiens; conditions: Homo sapiens, GAK;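 further: cell growth inhibition read out by a cell viability assay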
# Description: SANGER: Inhibition of human GAK cell growth in a cell viability assay.
# GB-1 = format: functional, cell-based, Homo sapiens; conditions: Homo sapiens, GB-1;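 further: growth of GB-1 cells judged by a viability assay, IC50 marks the concentration inhibiting growth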
# Description: SANGER: Inhibition of human GB-1 cell growth in a cell viability assay.
# GT3TKB = format: functional, cell-based, Homo sapiens; conditions: Homo sapiens, GT3TKB;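 further: growth inhibition of the cell line, read out with a cell viability assay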
# Description: SANGER: Inhibition of human GT3TKB cell growth in a cell viability assay.
# HCC1187 = format: functional, cell-based, Homo sapiens; conditions: Homo sapiens, HCC1187;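 further: growth inhibition of HCC1187 cells, read out with a cell viability assay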
# Description: SANGER: Inhibition of human HCC1187 cell growth in a cell viability assay.
# IA-LM = format: functional, cell-based; conditions: Homo sapiens;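 further: cell viability assay measuring growth inhibition of human IA-LM cells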
# Description: SANGER: Inhibition of human IA-LM cell growth in a cell viability assay.
# IST-MEL1 = format: functional, cell-based, Homo sapiens; conditions: Homo sapiens, IST-MEL1;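 further: growth inhibition of the cell line, read out with a cell viability assay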
# Description: SANGER: Inhibition of human IST-MEL1 cell growth in a cell viability assay.
# K5 = format: functional, cell-based, Homo sapiens; conditions: Homo sapiens, K5
# Description: SANGER: Inhibition of human K5 cell growth in a cell viability assay.
# KARPAS-299 = format: functional, cell-based, Homo sapiens; conditions: Homo sapiens, KARPAS-299
# Description: SANGER: Inhibition of human KARPAS-299 cell growth in a cell viability assay.
# KE-37 = format: functional, cell-based, Homo sapiens; conditions: Homo sapiens, KE-37;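 further: growth inhibition of KE-37 cells, read out with a cell viability assay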
# Description: SANGER: Inhibition of human KE-37 cell growth in a cell viability assay.
# KG-1 = format: functional, cell-based, Homo sapiens; conditions: Homo sapiens, KG-1;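 further: growth inhibition of KG-1 cells, read out by a cell viability assay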
# Description: SANGER: Inhibition of human KG-1 cell growth in a cell viability assay.
# KINGS-1 = format: functional, cell-based, Homo sapiens; conditions: Homo sapiens, KINGS-1;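 further: cell viability assay measuring suppression of KINGS-1 cell growth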
# Description: SANGER: Inhibition of human KINGS-1 cell growth in a cell viability assay.
# KLE = format: functional, cell-based; conditions: Homo sapiens;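 further: growth inhibition of human KLE cells, read out with a cell viability assay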
# Description: SANGER: Inhibition of human KLE cell growth in a cell viability assay.
# LS-123 = format: functional, cell-based, Homo sapiens; conditions: Homo sapiens, LS-123
# Description: SANGER: Inhibition of human LS-123 cell growth in a cell viability assay.
# MFM-223 = format: functional, cell-based, Homo sapiens; conditions: Homo sapiens, MFM-223
# Description: SANGER: Inhibition of human MFM-223 cell growth in a cell viability assay.
# ML-2 = format: functional, cell-based, Homo sapiens; conditions: Homo sapiens, ML-2;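 further: growth inhibition of ML-2 cells, measured with a cell viability readout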
# Description: SANGER: Inhibition of human ML-2 cell growth in a cell viability assay.
# MN-60 = format: functional, cell-based, Homo sapiens; conditions: Homo sapiens, MN-60;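 further: growth inhibition of the MN-60 cell line, determined with a cell viability assay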
# Description: SANGER: Inhibition of human MN-60 cell growth in a cell viability assay.
# MOLT-16 = format: functional, cell-based, Homo sapiens; conditions: Homo sapiens, MOLT-16;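 further: growth inhibition of human MOLT-16 cells, read out with a cell viability assay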
# Description: SANGER: Inhibition of human MOLT-16 cell growth in a cell viability assay.
# MOLT-4 = format: functional, cell-based, Homo sapiens; conditions: Homo sapiens, MOLT-4;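 further: growth inhibition of MOLT-4 cells, determined with a cell viability readout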
# Description: SANGER: Inhibition of human MOLT-4 cell growth in a cell viability assay.
# NB6 = format: functional, cell-based, Homo sapiens; conditions: Homo sapiens, NB6;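 further: growth inhibition of NB6 cells, read out by a cell viability assay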
# Description: SANGER: Inhibition of human NB6 cell growth in a cell viability assay.
# NCI-H1092 = format: functional, cell-based, Homo sapiens; conditions: Homo sapiens, NCI-H1092;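 further: cell growth inhibition measured with a cell viability assay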
# Description: SANGER: Inhibition of human NCI-H1092 cell growth in a cell viability assay.
# NCI-H1395 = format: functional, cell-based, Homo sapiens; conditions: Homo sapiens, NCI-H1395;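 further: cell viability assay read-out quantifying reduced proliferation of human NCI-H1395 cells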
# Description: SANGER: Inhibition of human NCI-H1395 cell growth in a cell viability assay.
# NCI-H1581 = format: functional, cell-based, Homo sapiens; conditions: Homo sapiens, NCI-H1581;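 further: cell growth inhibition read out by a viability assay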
# Description: SANGER: Inhibition of human NCI-H1581 cell growth in a cell viability assay.
# NCI-H1650 = format: functional, cell-based, Homo sapiens; conditions: Homo sapiens, NCI-H1650;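 further: growth inhibition of human NCI-H1650 cells measured by a cell viability assay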
# Description: SANGER: Inhibition of human NCI-H1650 cell growth in a cell viability assay.
# NCI-H1770 = format: functional, cell-based, Homo sapiens; conditions: Homo sapiens, NCI-H1770;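 further: growth inhibition of NCI-H1770 cells determined with a viability readout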
# Description: SANGER: Inhibition of human NCI-H1770 cell growth in a cell viability assay.
# NCI-H2126 = format: functional, cell-based, Homo sapiens; conditions: Homo sapiens, NCI-H2126;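 further: growth inhibition of the cancer cell line, determined with a cell viability readout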
# Description: SANGER: Inhibition of human NCI-H2126 cell growth in a cell viability assay.
# NCI-H526 = format: functional, cell-based, Homo sapiens; conditions: Homo sapiens, NCI-H526;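 further: growth inhibition of the human NCI-H526 cell line, measured by a cell viability assay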
# Description: SANGER: Inhibition of human NCI-H526 cell growth in a cell viability assay.
# NCI-H720 = format: functional, cell-based, Homo sapiens; conditions: Homo sapiens, NCI-H720;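 further: growth inhibition of human NCI-H720 cells determined by a cell viability assay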
# Description: SANGER: Inhibition of human NCI-H720 cell growth in a cell viability assay.
# NOS-1 = format: functional, cell-based, Homo sapiens; conditions: Homo sapiens, NOS-1;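 further: growth inhibition of the human NOS-1 cell line, read out with a cell viability assay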
# Description: SANGER: Inhibition of human NOS-1 cell growth in a cell viability assay.
# OCI-AML2 = format: functional, cell-based, Homo sapiens; conditions: Homo sapiens, OCI-AML2;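 further: growth inhibition of OCI-AML2 cells, read out with a cell viability assay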
# Description: SANGER: Inhibition of human OCI-AML2 cell growth in a cell viability assay.
# PSN1 = format: functional, cell-based, Homo sapiens; conditions: Homo sapiens, PSN1;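 further: suppression of growth of human PSN1 cells, read out by a cell viability assay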
# Description: SANGER: Inhibition of human PSN1 cell growth in a cell viability assay.
# RKO = format: functional, cell-based, Homo sapiens; conditions: Homo sapiens, RKO;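 further: growth inhibition of human RKO cells, read out with a cell viability assay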
# Description: SANGER: Inhibition of human RKO cell growth in a cell viability assay.
# SF-539 = format: functional, cell-based, Homo sapiens; conditions: Homo sapiens, SF-539;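 further: Read-out is a cell viability assay, with IC50 reflecting inhibition of cell growth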
# Description: SANGER: Inhibition of human SF539 cell growth in a cell viability assay.
# SNB-75 = format: functional, cell-based, Homo sapiens; conditions: Homo sapiens, SNB-75;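 further: cell viability assay measuring growth inhibition of human SNB-75 cells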
# Description: SANGER: Inhibition of human SNB75 cell growth in a cell viability assay.
# 697 = format: functional, cell-based, Homo sapiens; conditions: Homo sapiens
# Description: SANGER: Inhibition of human 697 cell growth in a cell viability assay.
# ATN-1 = format: functional, cell-based, Homo sapiens; conditions: Homo sapiens, ATN-1;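 further: growth inhibition of human ATN-1 cells, read out with a cell viability assay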
# Description: SANGER: Inhibition of human ATN-1 cell growth in a cell viability assay.
# BB30-HNC = format: functional, cell-based, Homo sapiens; conditions: Homo sapiens, BB30-HNC;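 further: growth inhibition of the cultured cell line, read out by a cell viability assay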
# Description: SANGER: Inhibition of human BB30-HNC cell growth in a cell viability assay.
# BB49-HNC = format: functional, cell-based, Homo sapiens; conditions: Homo sapiens, BB49-HNC;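 further: cell viability assay read-out, reported as inhibition of BB49-HNC cell growth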
# Description: SANGER: Inhibition of human BB49-HNC cell growth in a cell viability assay.
# BV-173 = format: functional, cell-based, Homo sapiens; conditions: Homo sapiens, BV-173
# Description: SANGER: Inhibition of human BV-173 cell growth in a cell viability assay.
# TE-10 = format: functional, cell-based, Homo sapiens; conditions: Homo sapiens, TE-10;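 further: growth inhibition of TE-10 cells, measured by a cell viability assay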
# Description: SANGER: Inhibition of human TE-10 cell growth in a cell viability assay.
# U-266 = format: functional, cell-based, Homo sapiens; conditions: Homo sapiens, U-266
# Description: SANGER: Inhibition of human U-266 cell growth in a cell viability assay.
# U-87 MG = format: functional, cell-based, Homo sapiens, U-87MG ATCC; conditions: Homo sapiens, U-87 MG;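 further: growth inhibition of the cells measured with a viability assay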
# Description: SANGER: Inhibition of human U-87-MG cell growth in a cell viability assay.
# VA-ES-BJ = format: functional, cell-based, Homo sapiens; conditions: Homo sapiens, VA-ES-BJ;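 further: growth inhibition of the VA-ES-BJ cell line, read out by a cell viability assay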
# Description: SANGER: Inhibition of human VA-ES-BJ cell growth in a cell viability assay.
# no-11 = format: functional, cell-based, Homo sapiens; conditions: Homo sapiens;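 further: growth inhibition of human NO-11 cells, read out with a cell viability assay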
# Description: SANGER: Inhibition of human no-11 cell growth in a cell viability assay.
# COLO-668 = format: functional, cell-based, Homo sapiens; conditions: Homo sapiens, COLO-668
# Description: SANGER: Inhibition of human COLO-668 cell growth in a cell viability assay.
compound,measurement,setting,value
NC(=O)Nc1cc(-c2cccc(F)c2)sc1C(=O)N[C@H]1CCCNC1 [AZD-7762],IC50,CTB-1,0.133 µM
same,IC50,D-502MG,> 2 µM
same,IC50,EM-2,0.099 µM
same,IC50,ES5,0.135 µM
same,IC50,EW-3,0.736 µM
same,IC50,GAK,1.05 µM
same,IC50,GB-1,1.38 µM
same,IC50,GT3TKB,1.49 µM
same,IC50,HCC1187,0.967 µM
same,IC50,IA-LM,1.4 µM
same,IC50,IST-MEL1,0.226 µM
same,IC50,K5,0.941 µM
same,IC50,KARPAS-299,> 2 µM
same,IC50,KE-37,0.0314 µM
same,IC50,KG-1,0.845 µM
same,IC50,KINGS-1,1.42 µM
same,IC50,KLE,> 2 µM
same,IC50,LS-123,1.81 µM
same,IC50,MFM-223,1.24 µM
same,IC50,ML-2,0.125 µM
same,IC50,MN-60,0.721 µM
same,IC50,MOLT-16,0.0881 µM
same,IC50,MOLT-4,0.239 µM
same,IC50,NB6,0.985 µM
same,IC50,NCI-H1092,> 2 µM
same,IC50,NCI-H1395,0.198 µM
same,IC50,NCI-H1581,> 2 µM
same,IC50,NCI-H1650,1.04 µM
same,IC50,NCI-H1770,> 2 µM
same,IC50,NCI-H2126,> 2 µM
same,IC50,NCI-H526,1.54 µM
same,IC50,NCI-H720,0.402 µM
same,IC50,NOS-1,0.15 µM
same,IC50,OCI-AML2,1.27 µM
same,IC50,PSN1,0.591 µM
same,IC50,RKO,0.52 µM
same,IC50,SF-539,0.137 µM
same,IC50,SNB-75,1.2 µM
same,IC50,697,0.111 µM
same,IC50,ATN-1,0.0342 µM
same,IC50,BB30-HNC,0.315 µM
same,IC50,BB49-HNC,1.4 µM
same,IC50,BV-173,0.346 µM
same,IC50,TE-10,0.91 µM
same,IC50,U-266,0.763 µM
same,IC50,U-87 MG,1.21 µM
same,IC50,VA-ES-BJ,0.226 µM
same,IC50,no-11,1.49 µM
same,IC50,COLO-668,> 2 µM
CN(NC(=O)CC(=O)NN(C)C(=S)c1ccccc1)C(=S)c1ccccc1 [ELESCLOMOL],IC50,CTB-1,0.00864 µM
same,IC50,D-502MG,0.0258 µM
same,IC50,EM-2,> 0.2 µM
same,IC50,ES5,0.0118 µM
same,IC50,EW-3,0.0399 µM
same,IC50,GAK,> 0.2 µM
same,IC50,GB-1,0.00671 µM
same,IC50,GT3TKB,0.016 µM
same,IC50,HCC1187,0.0793 µM
same,IC50,IA-LM,0.0844 µM
same,IC50,IST-MEL1,0.0113 µM
same,IC50,K5,0.007 µM
same,IC50,KARPAS-299,0.0374 µM
same,IC50,KE-37,> 0.2 µM
same,IC50,KG-1,0.0397 µM
same,IC50,KINGS-1,0.177 µM
same,IC50,KLE,> 0.2 µM
same,IC50,LS-123,0.0485 µM
same,IC50,MFM-223,0.0452 µM
same,IC50,ML-2,> 0.2 µM
same,IC50,MN-60,0.0143 µM
same,IC50,MOLT-16,0.00453 µM
same,IC50,MOLT-4,0.105 µM
same,IC50,NB6,0.142 µM
same,IC50,NCI-H1092,0.0901 µM
same,IC50,NCI-H1395,0.0136 µM
same,IC50,NCI-H1581,0.0246 µM
same,IC50,NCI-H1650,0.0304 µM
same,IC50,NCI-H1770,> 0.2 µM
same,IC50,NCI-H2126,0.0163 µM
same,IC50,NCI-H526,> 0.2 µM
same,IC50,NCI-H720,0.124 µM
same,IC50,NOS-1,< 0.000781 µM
same,IC50,OCI-AML2,0.136 µM
same,IC50,PSN1,0.00384 µM
same,IC50,RKO,0.021 µM
same,IC50,SF-539,0.0244 µM
same,IC50,SNB-75,0.105 µM
same,IC50,697,0.00613 µM
same,IC50,ATN-1,> 0.2 µM
same,IC50,BB30-HNC,0.0353 µM
same,IC50,BB49-HNC,0.126 µM
same,IC50,BV-173,0.00539 µM
same,IC50,TE-10,> 0.2 µM
same,IC50,U-266,0.0158 µM
same,IC50,U-87 MG,> 0.2 µM
same,IC50,VA-ES-BJ,0.00764 µM
same,IC50,no-11,0.0233 µM
same,IC50,COLO-668,> 0.2 µM
